Experimental findings from ChEMBL document CHEMBL1201862, “PubChem BioAssay data set” (2004) are described below.

The structures appear in SMILES notation.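 Grown in 96-well plates, cells were treated for 48 hours with each compound at five concentrations. Insufficient inhibition: endpoint recorded as highest concentration tested. GI50 is the concentration that inhibits growth by half.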 Calls of active or inactive are those of the source. Cut-off read from the data, not from the text of the source: active = GI50 up to about 1.1 µM and inactive = higher. Where only a bound is given, the exact number is not on record here.

Some test systems named below: HOP-92; A498; OVCAR-3; OVCAR-5; Malme-3M; OVCAR-4; UO-31; HCT-15; HCT-116; SF-295; Hs-578T; SK-MEL-28; MCF7; 786-0; SN12C; UACC-62; HL-60; SNB-19; SR; UACC-257.
Holding throughout (experiment): NCI tumour cell line growth inhibition, 48 h

For `CC(=O)OC12COC1CC(O)C1(C)C(=O)C(O)C3=C(C)C(O)CC(O)(C(OC(=O)c4ccccc4)C21)C3(C)C` (stereo not given), the GI50 with HOP-92 was > 100 µM (inactive); in the experiment on A498, > 100 µM (inactive); with OVCAR-3, 2.55 µM (inactive); in the experiment on OVCAR-5 it was 3.94 µM (inactive); in the experiment on Malme-3M it was 3.78 µM (inactive); in the experiment with OVCAR-4, > 100 µM (inactive). The GI50 in the experiment with UO-31 is 67.1 µM (inactive); in the experiment on HCT-15, over 100 µM; with HCT-116, 1.67 µM (inactive); with SF-295 it was 26.3 µM (inactive); with Hs-578T, 0.778 µM (active); with SK-MEL-28, 3.38 µM (inactive). The GI50 was 1.68 µM (inactive) in the experiment with MCF7; 13.4 µM (inactive) in the experiment on 786-0; 4.94 µM (inactive) in the experiment on SN12C; > 100 µM (inactive) in the experiment with UACC-62; 2.52 µM (inactive) with HL-60; 5.31 µM (inactive) with SNB-19. Besides, the figures for the GI50 with SR and with UACC-257 were 5.12 µM (inactive) and 5 µM (inactive), respectively.

In the case of `O=C(Nc1ccc([As](=O)(O)O)cc1)Nc1cccc(Cl)c1Cl`, the GI50 with HOP-92 is 77.8 µM (inactive); with A498, > 100 µM (inactive); with OVCAR-3 it was > 100 µM (inactive); in the experiment with OVCAR-5 it was > 100 µM (inactive); in the experiment on Malme-3M it was > 100 µM (inactive); with OVCAR-4, 18.7 µM (inactive). The GI50 is 40.6 µM (inactive) in the experiment on UO-31; over 100 µM in the experiment on HCT-15; > 100 µM (inactive) in the experiment on HCT-116; 65.5 µM (inactive) in the experiment on SF-295; 20.5 µM (inactive) in the experiment with Hs-578T; > 100 µM (inactive) in the experiment with SK-MEL-28. Also, the GI50 in the experiment with MCF7 is > 100 µM (inactive); with 786-0 it was 46.1 µM (inactive); with SN12C, > 100 µM (inactive); in the experiment with UACC-62, > 100 µM (inactive); with HL-60, > 100 µM (inactive); in the experiment with SNB-19, 86.1 µM (inactive). The GI50 is 17 µM (inactive) with SR and > 100 µM (inactive) in the experiment with UACC-257.

Regarding `O=C(O)c1ccc2c(c1)Cc1cc([N+](=O)[O-])ccc1-2`, the GI50 with HOP-92 is 30.5 µM (inactive); in the experiment with A498 it was 44 µM (inactive); in the experiment with OVCAR-3, > 100 µM (inactive); in the experiment with OVCAR-5 it was > 100 µM (inactive); in the experiment on Malme-3M, > 100 µM (inactive); in the experiment on OVCAR-4 it was > 100 µM (inactive). In addition, the GI50 in the experiment with UO-31 is 93.1 µM (inactive); in the experiment on HCT-15 it was over 100 µM; in the experiment on HCT-116, > 100 µM (inactive); in the experiment with SF-295, 90.8 µM (inactive); with Hs-578T it was 76.9 µM (inactive); in the experiment on SK-MEL-28, > 100 µM (inactive). Further, the GI50 with MCF7, with 786-0, with SN12C, in the experiment on UACC-62, with HL-60 and with SNB-19 was > 100 µM (inactive) in each case. Further, the figures for the GI50 in the experiment on SR and in the experiment with UACC-257 were 86.1 µM (inactive) and 44.1 µM (inactive), respectively.

For `N#Cc1cc2c(n(C3OC(CO)C(O)C(O)C3O)c1=S)CCC2` (stereo not given), the GI50 in the experiment on HOP-92, in the experiment with A498, in the experiment with OVCAR-3, in the experiment with OVCAR-5, in the experiment on Malme-3M and in the experiment on OVCAR-4 was > 100 µM (inactive) throughout. Also, the GI50 with UO-31 is > 100 µM (inactive); with HCT-15 it was over 100 µM; with HCT-116, > 100 µM (inactive); in the experiment with SF-295 it was > 100 µM (inactive); in the experiment with Hs-578T it was > 100 µM (inactive); in the experiment on SK-MEL-28 it was > 100 µM (inactive). Besides, the GI50 with MCF7, with 786-0, with SN12C, in the experiment with UACC-62, in the experiment on HL-60 and with SNB-19 was > 100 µM (inactive) throughout. Further, the GI50 in the experiment with SR and in the experiment on UACC-257 was > 100 µM (inactive) each time.

Regarding `CCN(CC)COC(=S)S`, the GI50 with HOP-92 is > 100 µM (inactive); in the experiment with A498 it was > 100 µM (inactive); in the experiment on OVCAR-3, 0.0516 µM (active); in the experiment on OVCAR-5, > 100 µM (inactive); in the experiment on Malme-3M, 55.8 µM (inactive); in the experiment with OVCAR-4, 48.8 µM (inactive). The GI50 with UO-31 was 62.5 µM (inactive); in the experiment with HCT-15 it was over 100 µM; with HCT-116, 40.4 µM (inactive); in the experiment on SF-295, > 77.6 µM (inactive); with Hs-578T, > 100 µM (inactive); with SK-MEL-28 it was > 100 µM (inactive). In addition, the GI50 was > 100 µM (inactive) in the experiment on MCF7; 33.3 µM (inactive) in the experiment with 786-0; > 100 µM (inactive) in the experiment with SN12C; > 83 µM (inactive) in the experiment on UACC-62; < 0.01 µM (active) in the experiment with HL-60; > 100 µM (inactive) in the experiment on SNB-19. For the same compound, the GI50 is 0.233 µM (active) with SR and 27.5 µM (inactive) with UACC-257.

For the compound `CC(=O)OC(C)c1cc2c(s1)C(=O)c1ccsc1C2=O` (stereo not given), the GI50 with HOP-92 was 0.372 µM (active); in the experiment with A498, 1.82 µM (inactive); in the experiment with OVCAR-3 it was 0.0405 µM (active); with OVCAR-5, 0.458 µM (active); in the experiment with Malme-3M, 0.102 µM (active); with OVCAR-4, 0.664 µM (active). Besides, the GI50 with UO-31 was 0.184 µM (active); with HCT-15, 0.124 µM; in the experiment with HCT-116, 0.226 µM (active); in the experiment on SF-295, 0.113 µM (active); in the experiment on Hs-578T, 0.154 µM (active); in the experiment on SK-MEL-28 it was 0.172 µM (active). For the same compound, the GI50 was 0.0513 µM (active) in the experiment with MCF7; 0.286 µM (active) with 786-0; 0.156 µM (active) with SN12C; 0.0811 µM (active) with UACC-62; 0.0122 µM (active) with HL-60; 0.166 µM (active) in the experiment with SNB-19. Besides, the values for the GI50 in the experiment on SR and in the experiment with UACC-257 were 0.0748 µM (active) and 0.028 µM (active), respectively.
